Patent publication US20020137929A1, “1 - (3-heterocyclylphenyl) isothiourea, -isourea, -guanidine and -amidine herbicidal agents” (Intellectual Property Department, BASF Aktiengesellschaft, priority 1998, published 2002)

Tests used:
[1] = tested on: SAGPY (Arrowhead (Pygmaea)); assay: Preemergence weed control under flooded paddy conditions; assay type: in vivo, Sagittaria pygmaea; conditions: rated 3-4 weeks after treatment
Summary of the method: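 Seeds or propagules sown in top 0.5 cm of silt loam soil, flooded 1.5 to 3 cm above surface throughout. Compound in 50/50 v/v aqueous/acetone pipetted into flood water at about 0.0313 to 0.500 kg/ha. Visual 0-9 rating versus control after three to four weeks in greenhouse.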

[2] = tested on: ORYSAT (Rice, Tebonnet); assay: Rice tolerance to post-transplant applications, flooded paddy conditions (Table III); assay type: in vivo, Oryza sativa, (L.) Tebonnet
Method: Results of herbicide evaluation are expressed on a rating scale (0-9). The scale is based upon a visual observation of plant stand, vigor, malformation, size, chlorosis and overall plant appearance as compared with a control.
The tolerance of transplanted rice to post-transplanted herbicide applications is determined as follows: two ten-day-old rice seedlings (cv. Tebonnet) are transplanted into silt loam soil in 32 oz. plastic containers with a diameter of 10.5 cm and no drainage holes. After transplanting, the containers are flooded and the water level is maintained at 1.5 to 3 cm above the soil surface. Three days after transplanting, the flooded soil surface of the containers is treated with the selected aqueous/acetone 50/50 v/v mixture containing the test compounds to provide the equivalent of about 0.0313 to 0.500 kg/ha of active ingredient. The treated containers are placed on greenhouse benches, watered such that the water level is maintained as stated above, and cared for in accordance with conventional greenhouse procedures. Three to four weeks after treatment, the test is terminated and each container is examined and herbicidal effect rated according to the rating system provided in Example 37. The compounds evaluated are reported by compound number given in Example 37.
Plant species employed in this example are reported by header abbreviation, common name and scientific name.

[3] = tested on: ORYSAT (Rice, Tebonnet); assay: Rice tolerance to post-transplant applications, flooded paddy conditions (Table IV); assay type: in vivo, Oryza sativa, (L.) Tebonnet
Summary of the method: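 With weeds 3 to 5 cm tall and rice at the 1.5 to 2.5 leaf stage, containers were flooded and water held 1.5 to 3 cm above soil. Compounds in 50/50 v/v aqueous/acetone went into the flood water at about 0.0313 to 0.500 kg/ha a.i. Effects were visually rated 0–9 against controls after three to four weeks in the greenhouse.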

[4] = tested on: ABUTH (Velvetleaf); assay: Preemergence herbicidal evaluation; assay type: in vivo, Abutilon theophrasti; conditions: rated 4-5 weeks after treatment; for ABUTH rating: preemergence, 0-9 scale
Summary of the method: (§1)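 Steps: mix seeds into potting soil; plant atop ~1 inch soil; spray compound in aqueous acetone (~0.0156-0.500 kg/ha equivalent); maintain in greenhouse with watering; rate visually 0-9 versus control at 4-5 weeks.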

[5] = tested on: CYPIR (Rice Flatsedge); assay: Preemergence weed control under flooded paddy conditions; assay type: in vivo, Cyperus iria; conditions: rated 3-4 weeks after treatment
Summary of the method: (§2)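 Ratings on a 0-9 visual scale cover stand, vigor, malformation, size, chlorosis and overall appearance relative to a control, taken three to four weeks post-treatment. Application was into flood water over freshly sown silt loam at roughly 0.0313 to 0.500 kg/ha.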

[6] = tested on: TRZAWR (Wheat, Winter, cv Riband); assay: Preemergence herbicidal evaluation; assay type: in vivo, Triticum aestivum; conditions: rated 4-5 weeks after treatment; for TRZAWR rating: preemergence, 0-9 scale
Summary of the method: as §1

[7] = tested on: ECHORC (Watergrass (Calif.)); assay: Preemergence weed control under flooded paddy conditions; assay type: in vivo, Echinochloa oryzoides; conditions: rated 3-4 weeks after treatment
Summary of the method: as §2

[8] = tested on: MOOVA (Monochoria); assay: Postemergence weed control under flooded paddy conditions; assay type: in vivo, Monochoria vaginalis; conditions: postemergence weeds, 3-4 weeks after treatment
Summary of the method: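 Flood-water application, about 0.0313–0.500 kg/ha a.i. in aqueous/acetone 50/50 v/v; water depth 1.5–3 cm throughout. Weeds 3–5 cm, rice 1.5–2.5 leaf. Greenhouse; 0–9 visual rating vs control at 3–4 wk.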

SMILES	Herbicidal rating SAGPY ([1]; 0.1160 kg/ha)	Herbicidal rating SAGPY ([1]; 0.2310 kg/ha)	Herbicidal rating SAGPY ([1]; 0.4630 kg/ha)	Herbicidal rating ORYSAT (rice tolerance) ([2]; in vivo)	Herbicidal rating ORYSAT (rice tolerance) ([3]; in vivo)	ABUTH preemergence herbicidal rating ([4]; rate 0.1250 kg/ha)	ABUTH preemergence herbicidal rating ([4]; rate 0.2500 kg/ha)	Herbicidal rating CYPIR ([5]; 0.1160 kg/ha)	Herbicidal rating CYPIR ([5]; 0.2310 kg/ha)	Herbicidal rating CYPIR ([5]; 0.4630 kg/ha)	TRZAWR preemergence herbicidal rating ([6]; rate 0.1250 kg/ha)	TRZAWR preemergence herbicidal rating ([6]; rate 0.2500 kg/ha)	Herbicidal rating ECHORC ([7]; 0.1160 kg/ha)	Herbicidal rating ECHORC ([7]; 0.2310 kg/ha)	Herbicidal rating ECHORC ([7]; 0.4630 kg/ha)	Herbicidal rating MOOVA ([8]; rate 0.1160 kg/ha)	Herbicidal rating MOOVA ([8]; rate 0.2310 kg/ha)	Herbicidal rating MOOVA ([8]; rate 0.4630 kg/ha)	Herbicidal rating SAGPY ([1]; 0.1250 kg/ha)	Herbicidal rating SAGPY ([1]; 0.2500 kg/ha)	further results
CCOC(=O)CN1C(=O)C(=C2CCCC2)SC1=Nc1cc(-n2c(=O)cc(C(F)(F)F)n(C)c2=O)c(F)cc1Cl [Compound 18, Ethyl 2-{{2-chloro-5-[3,6-dihydro-3-methyl-2,6-dioxo-4-(trifluoromethyl)-1(2H)-pyrimidinyl]-4-fluorophenyl}imino}-5-cyclopentylidene-4-oxo-3-thiazolidineacetate]	0.0	0.0	6.0	3.0	3.0	2.0	9.0	0.0	0.0	0.0	0.0	0.0	7.0	7.0	7.0	9.0	9.0	9.0	–	–	–
CCOC(=O)CN1C(=O)C(=C(C)C)S/C1=N/c1cc(-n2c(=O)cc(C(F)(F)F)n(C)c2=O)c(F)cc1Cl [Compound 20, Ethyl 2-{{2-chloro-5-[3,6-dihydro-3-methyl-2,6-dioxo-4-(trifluoromethyl)-1(2H)-pyrimidinyl]-4-fluorophenyl}imino}-5-isopropylidene-4-oxo-3-thiazolidineacetate]	0.0	0.0	3.0	2.0	2.0	9.0	9.0	0.0	0.0	0.0	0.0	0.0	7.0	7.0	7.0	9.0	9.0	9.0	–	–	ABUTH preemergence herbicidal rating ([4]; rate 0.0625 kg/ha): 0.0; TRZAWR preemergence herbicidal rating ([6]; rate 0.0625 kg/ha): 0.0
CCOC(=O)CN1C(=O)C(=Cc2ccc(F)cc2)SC1=Nc1cc(-n2c(=O)cc(C(F)(F)F)n(C)c2=O)c(F)cc1Cl [Compound 21, Ethyl 2-{{2-chloro-5-[3,6-dihydro-3-methyl-2,6-dioxo-4-(trifluoromethyl)-1(2H)-pyrimidinyl]-4-fluorophenyl}imino}-5-(p-fluorobenzylidene)-4-oxo-3-thiazolidineacetate]	0.0	0.0	0.0	0.0	0.0	–	2.0	0.0	0.0	0.0	–	0.0	2.0	4.0	5.0	0.0	0.0	0.0	–	–	–
Cn1c(C(F)(F)F)cc(=O)n(-c2cc(N=C3SCC(=O)N3CCC(=O)O)c(Cl)cc2F)c1=O [Compound 30, 2-{{2-Chloro-5-[3,6-dihydro-3-methyl-2,6-dioxo-4-(trifluoromethyl)-1(2H)-pyrimidinyl]-4-fluorophenyl}imino}-4-oxo-3-thiazolidinepropionic acid]	–	–	–	0.0	0.0	–	–	–	–	–	–	–	–	–	–	–	–	–	0.0	2.0	Preemergence herbicidal rating ABUTH ([4]; rate 0.0313 kg/ha): 9.0; Preemergence herbicidal rating ABUTH ([4]; rate 0.0625 kg/ha): 9.0; Preemergence herbicidal rating ABUTH ([4]; rate 0.1250 kg/ha): 9.0; Preemergence herbicidal rating ABUTH ([4]; rate 0.2500 kg/ha): 9.0; Herbicidal rating CYPIR ([5]; 0.1250 kg/ha): 2.0; Herbicidal rating CYPIR ([5]; 0.2500 kg/ha): 4.5; Preemergence herbicidal rating TRZAWR ([6]; rate 0.0313 kg/ha): 0.0; Preemergence herbicidal rating TRZAWR ([6]; rate 0.0625 kg/ha): 1.0; Preemergence herbicidal rating TRZAWR ([6]; rate 0.1250 kg/ha): 2.0; Preemergence herbicidal rating TRZAWR ([6]; rate 0.2500 kg/ha): 6.0; Herbicidal rating ECHORC ([7]; 0.1250 kg/ha): 0.0; Herbicidal rating ECHORC ([7]; 0.2500 kg/ha): 0.0; Herbicidal rating MOOVA ([8]; rate 0.1250 kg/ha): 1.5; Herbicidal rating MOOVA ([8]; rate 0.2500 kg/ha): 4.5
CCOP(=O)(CN1C(=O)CSC1=Nc1cc(-n2c(=O)cc(C(F)(F)F)n(C)c2=O)c(F)cc1Cl)OCC [Compound 35, Diethyl {{2-{{2-chloro-5-[3,6-dihydro-3-methyl-2,6-dioxo-4-(trifluoromethyl)-1(2H)-pyrimidinyl]-4-fluorophenyl}imino}-4-oxo-3-thiazolidinyl}methyl}phosphonate]	–	–	–	–	–	–	–	–	–	–	–	–	–	–	–	–	–	–	0.0	3.0	Herbicidal rating ORYSAT (rice tolerance) ([2]; 0.1250 kg/ha, post-transplant rice, flooded paddy, rated 3-4 weeks after treatment): 2.0; Herbicidal rating ORYSAT (rice tolerance) ([2]; 0.2500 kg/ha, post-transplant rice, flooded paddy, rated 3-4 weeks after treatment): 3.0; Herbicidal rating ORYSAT (rice tolerance) ([3]; rate 0.1250 kg/ha, flooded paddy, post-transplant rice, 3-4 weeks after treatment): 2.0; Herbicidal rating ORYSAT (rice tolerance) ([3]; rate 0.2500 kg/ha, flooded paddy, post-transplant rice, 3-4 weeks after treatment): 3.0; Preemergence herbicidal rating ABUTH ([4]; rate 0.0625 kg/ha): 9.0; Preemergence herbicidal rating ABUTH ([4]; rate 0.1250 kg/ha): 9.0; Preemergence herbicidal rating ABUTH ([4]; rate 0.2500 kg/ha): 9.0; Herbicidal rating CYPIR ([5]; 0.1250 kg/ha): 0.0; Herbicidal rating CYPIR ([5]; 0.2500 kg/ha): 0.0; Preemergence herbicidal rating TRZAWR ([6]; rate 0.0625 kg/ha): 0.0; Preemergence herbicidal rating TRZAWR ([6]; rate 0.1250 kg/ha): 1.0; Preemergence herbicidal rating TRZAWR ([6]; rate 0.2500 kg/ha): 3.0; Herbicidal rating ECHORC ([7]; 0.1250 kg/ha): 3.0; Herbicidal rating ECHORC ([7]; 0.2500 kg/ha): 6.0
COC(=O)C1(N2C(=O)CSC2=Nc2cc(-n3c(=O)cc(C(F)(F)F)n(C)c3=O)c(F)cc2Cl)CCCCC1 [Compound 81, Methyl 1-{2-{{2-chloro-5-[3,6-dihydro-3-methyl-2,6-dioxo-4-(trifluoromethyl)-1(2H)-pyrimidinyl]-4-fluorophenyl}imino}-4-oxo-3-thiazolidinyl}-cyclohexanecarboxylate]	–	–	–	–	0.0	–	–	–	–	–	–	–	–	–	–	–	–	–	–	–	SAGPY herbicidal effect rating ([1]; 0.0625 kg/ha): 0.0; SAGPY herbicidal effect rating ([1]; 0.1250 kg/ha): 0.0; SAGPY herbicidal effect rating ([1]; 0.2500 kg/ha): 0.0; ORYSAT herbicidal effect rating (rice tolerance) ([2]; in vivo): 0.0; ABUTH rating ([4]; 0.0313 kg/ha): 9.0; ABUTH rating ([4]; 0.0625 kg/ha): 9.0; ABUTH rating ([4]; 0.1250 kg/ha): 9.0; ABUTH rating ([4]; 0.2500 kg/ha): 9.0; CYPIR herbicidal effect rating ([5]; 0.0625 kg/ha): 4.0; CYPIR herbicidal effect rating ([5]; 0.1250 kg/ha): 5.0; CYPIR herbicidal effect rating ([5]; 0.2500 kg/ha): 5.0; TRZAWR rating ([6]; 0.0313 kg/ha): 0.0; TRZAWR rating ([6]; 0.0625 kg/ha): 0.0; TRZAWR rating ([6]; 0.1250 kg/ha): 1.0; TRZAWR rating ([6]; 0.2500 kg/ha): 1.0; ECHORC herbicidal effect rating ([7]; 0.0625 kg/ha): 0.0; ECHORC herbicidal effect rating ([7]; 0.1250 kg/ha): 3.0; ECHORC herbicidal effect rating ([7]; 0.2500 kg/ha): 3.0
